Literature values in patent US20230363334A1, “METHOD FOR INCREASING CONTENT AND GENE EXPRESSION OF AROMATIC SUBSTANCE IN FRUITS AND VEGETABLES BY USING HYDROGEN-RICH WATER” (NANJING AGRICULTURAL UNIVERSITY, priority 2020, published 2023).

Conditions: one atmosphere and 20° C.

## [HH] [hydrogen]
  Maximum concentration of hydrogen dissolved in water (saturation concentration): 1.6 ppm
  Solubility of hydrogen (volumes of hydrogen per volume of water): 1.83%
